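Protocol summary: plate cells (96-well), add compound at 5 concentrations, incubate 48 h, interpolate endpoints linearly. The concentration for full growth arrest is given as TGI.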
Key:
Experiment in all cases: DTP human tumour cell line panel, 48 h
DMS 273 small cell lung = test system: DMS 273 small cell lung
LXFL 529 NSCLC = test system: LXFL 529 NSCLC
SNB-78 CNS = test system: SNB-78 CNS
DMS 114 small cell lung = test system: DMS 114 small cell lung
HOP-18 NSCLC = test system: HOP-18 NSCLC
M19-MEL melanoma = test system: M19-MEL melanoma
KM20L2 colon = test system: KM20L2 colon

Measured: TGI

CC1(C)OP23(NC(=O)OC2(C(F)(F)F)c2ccccc2O3)OC1(C)C (stereo unspecified)
not listed: KM20L2 colon
> 100 µM: all other assays above

N/N=C(\C(=O)Nc1c(Cl)cc([N+](=O)[O-])cc1Cl)C(c1cnc2ccc([N+](=O)[O-])cc2n1)[N+](=O)[O-] (stereo unspecified)
not listed: LXFL 529 NSCLC | HOP-18 NSCLC
> 100 µM: all other assays above

From PubChem BioAssay (NCI)
